The record followed here is publication PMC9930429, “Wogonin attenuates the pathogenicity of Streptococcus pneumoniae by double‐target inhibition of Pneumolysin and Sortase A” (Journal of Cellular and Molecular Medicine, 2023).

For the test, the target named is Pneumolysin (PLY) (Streptococcus pneumoniae, UniProt Q04IN8). The test can be described thus: biochemical.

Molecules are shown by their SMILES.

What is called IC50 is the concentration needed to halve the response being measured. Low values mean higher potency, high ones lower potency.

Sequence of Pneumolysin (PLY) (Q04IN8 2-471 limits assumed): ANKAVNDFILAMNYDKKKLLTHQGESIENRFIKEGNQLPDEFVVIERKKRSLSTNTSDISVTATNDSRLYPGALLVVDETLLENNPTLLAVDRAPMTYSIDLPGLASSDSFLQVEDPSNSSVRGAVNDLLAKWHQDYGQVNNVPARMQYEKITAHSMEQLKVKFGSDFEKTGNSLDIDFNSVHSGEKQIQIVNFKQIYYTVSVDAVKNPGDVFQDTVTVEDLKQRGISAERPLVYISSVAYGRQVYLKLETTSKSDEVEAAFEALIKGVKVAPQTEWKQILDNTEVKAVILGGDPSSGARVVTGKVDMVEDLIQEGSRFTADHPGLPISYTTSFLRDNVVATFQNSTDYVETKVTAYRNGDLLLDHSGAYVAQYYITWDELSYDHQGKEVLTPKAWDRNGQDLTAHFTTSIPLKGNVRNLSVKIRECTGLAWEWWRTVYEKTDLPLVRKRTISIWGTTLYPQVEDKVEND

Consider `COc1c(O)cc(O)c2c(=O)cc(-c3ccccc3)oc12` [wogonin], for which the concentration for half-maximal inhibition (IC50) was 186 µM.
